Laboratory results published in US12024515B2, “Kifunensine derivatives” (University of Kansas, priority 2021, dated 2024).
Numbered stars: 1 amine (or outer) side, 2 acyl side, 3 side chain; on linkers, the order of the positions; unused ones are H or OH. Bridge positions count the residues as written; N and C are the ends. Square brackets hold non-standard residues; d marks the D form. Peptide text beside a SMILES is read from it. I, II: the chains in the order shown. Actinocin(9to1) = Cc1c2oc3c(C)ccc(C(=O)[*:1])c3nc-2c(C(=O)[*:2])c(N)c1=O; NMeV = CN[C@H](C(=O)O)C(C)C; Sar = CNCC(=O)O

Assays:
Raji cells [1] = assay: CD20 expression in Raji cells (flow cytometry of surface CD20, western blotting); type: cell-based; conditions: for effect on Kif mediated CD20 upregulation: with Kif 25 μM, actinomycin D 10 μg/ml, cycloheximide 100 μg/ml, 48 hours (FIG. 2A); for cell surface expression of CD20: 48 hours, flow cytometry, Kif 25 μM, Swain 25 μM, DMJ 1 mM, DIM 1 mM (FIG. 1A, 1C)
Protocol: (§1) FIGS. 1A-1E relate to kifunensine (“Kif”) induced expression of CD20. Raji cells were incubated with Kif for 48 hours and CD20 levels on the cell surface levels were analyzed by flow cytometry (FIG. 1A) and in whole cell lysate by western blotting (FIG. 1B). Raji cells were preincubated with Kif (25 μM), Swain (25 μM), DMJ (1 mM), and DIM (1 mM) or vehicle for 48 hours, and the cell surface levels of CD20 were analyzed by flow cytometry (FIG. 1C). Cells were incubated with Kif (25 μM) or vehicle for 48 hours and the cell surface levels of CD20 were analyzed by flow cytometry (FIG. 1D). Raji and rituximab resistant cells were incubated with Kif (25 μM) or vehicle for 48 hours and the cell surface levels of CD20 were analyzed by flow cytometry (FIG. 1E). Results are presented as a percentage of MFI of vehicle treated control cells (±SD). Statistical significance was determined with Kruskal-Wallis test, *P<0.033, **P<0.002, ****P<0.001, vs control.
Staining of surface antigens. Cells were treated for 48 hours with the described inhibitors at the indicated concentrations or with DMSO controls. Cells were then harvested, washed twice with cold flow buffer (PBS (GIBCO) containing 0.5% BSA and 0.1% sodium azide (Fisher)), stained for 1 hour with 0.25 μg of anti-CD20 mAb (clone 2H7) conjugated with Super Bright 645 (eBioscience, ThermoFisher Scientific), then washed twice with flow buffer, and finally the cells were incubated with flow buffer containing 2.5 μg/mL 7-aminoactinomycin (7-AAD, eBioscience, ThermoFisher Scientific) for 10 minutes prior to being analyzed using an Attune NxT Flow Cytometer. CD20 expression was assessed in 7-AAD negative cells.

[2] = system: Raji cells and Rituximab resistant Raji 4RH cells; assay: In vivo CD20 expression in subcutaneous Raji and Raji 4RH tumors (Western blot); conditions: SCID mice, i.p., 10 mg/kg every second day over 8 days
Protocol: In vivo increase in CD20 expression of Raji cells and Rituximab resistant Raji 4RH cells. A study was performed to determine whether Kif can increase the expression of CD20 on Raji cells and Rituximab resistant Raji 4RH cells that had been subcutaneously inoculated into the flank of six week old SCID mice. After inoculation, tumors were permitted to grow for 10 days prior to treatment initiation. The mice were randomly divided into control and treatment groups. Control group received PBS, while the treatment group received Kif (i.p., 10 mg/kg) every second day over an 8 day period. The mice were then scarified, tumors were harvested, and CD20 expression was assessed by Western blot.

Raji cells [3] = assay: Histone acetylation in Raji cells; type: cell-based
[4] = system: patient derived primary CLL samples; assay: CD20 expression in patient derived primary CLL samples; type: cell-based
malignant B cell lines [5] = assay: ADCC assay with anti-CD20 antibody and CD16+ NK-92 effector cells; type: cell-based
Protocol: FIGS. 3A-3B illustrate Kif potentiates the activity of anti-CD20 antibodies in vitro. Cells were incubated with Kif (25 μM) or vehicle control (Con) for 48 hours prior to rituximab mediated ADCC (FIG. 3A) or CDC (FIG. 3B). ADCC assays. Target cells were labelled with CellTrace Violet according to the manufacturer's instructions (ThermoFisher Scientific). In brief, 1 million target cells were washed twice with warm PBS, then stained with 5 μM CellTrace Violet in PBS for 20 minutes at 37° C. Then, 5 volume equivalents of complete media were added and the resulting solution was incubated for 10 minutes at 37° C. The cells were pelleted and washed twice with fresh complete media, and the cell suspension was adjusted to 800,000 cells/mL in complete media. 25 μL of the target cell suspension (i.e., 20,000 target cells) were then in added to a 96-well plate. 25 μL of rituximab solutions at 4× the indicated concentrations in complete media or complete media were added to experiment wells and the control wells respectively, and the resulting suspensions were incubated for 30 minutes at 37° C. Subsequently, 50 μL of a 1.6 million CD-16+ NK-92 cells/mL suspension in complete media (E:T 4:1, i.e., 80,000 effector cells) were added to experiment wells and control wells (i.e., no antibody) and the plate was incubated for 4 hours at 37° C. in a fully humidified atmosphere of 5% CO2. Subsequently, 6 uL of 2.5 μg/mL was added to each well and after 10 minutes the plate was analyzed using an Attune NxT Flow Cytometer. Target cell viability was accessed by determining the percentage of CellTrace Violet and 7-AAD positive cells. ADCC was calculated as follows: % ADCC=% 7-AAD positive target cells in experiment well—% 7-AAD positive target cells in control wells.

[6] = system: rituximab resistant cell lines (Raji 2R, Raji 4RH, RL 4RH); assay: Cell surface CD20 in rituximab resistant cell lines (flow cytometry); type: cell-based; conditions: 25 μM, 48 hours (FIG. 1E)
Protocol: as §1
(§2) Staining of surface antigens. Cells were treated for 48 hours with the described inhibitors at the indicated concentrations or with DMSO controls. […] CD20 expression was assessed in 7-AAD negative cells.

[7] = system: panel of cells lines representing diffuse large B cell lymphoma, Burkitt lymphoma, and follicular lymphoma; assay: Cell surface CD20 in a panel of B cell lymphoma cell lines (flow cytometry); type: cell-based; conditions: 25 μM, 48 hours, flow cytometry (FIG. 1D)
Protocol: as §1, §2

MS4A1 = assay: CD20 mRNA (MS4A1) expression by RT-PCR; type: cell-based; conditions: Raji cells, Kif 25 μM, 48 hours, RT-PCR (FIG. 2B)
Protocol: FIGS. 2A-2B illustrates that Kif mediates CD20 upregulation occurs upstream of transcription and translation. Cells were incubated with Kif (25 μM), Kif (25 μM) plus actinomycin D (10 μg/ml), Kif (25 μM) plus cycloheximide (100 μg/ml), or vehicle control (Con) for 48 hours and the cell surface levels of CD20 were analyzed by flow cytometry (FIG. 2A). Cells were incubated with Kif (25 μM) or vehicle control (Con) for 48 hours and CD20 mRNA levels were analyzed by RT-PCR (FIG. 2B).

malignant B cell lines [8] = assay: CDC assay with anti-CD20 antibody and pooled human serum; type: cell-based
Protocol: FIGS. 3A-3B illustrate Kif potentiates the activity of anti-CD20 antibodies in vitro. Cells were incubated with Kif (25 μM) or vehicle control (Con) for 48 hours prior to rituximab mediated ADCC (FIG. 3A) or CDC (FIG. 3B). CDC assays. 25 μL of the target cell suspension at 2 million cells/mL (i.e., 50,000 target cells) were added to a 96-well plate. 25 μL of antibody solutions at 4× the indicated concentrations in complete media or complete media were added to experiment wells and the control wells respectively, and the resulting suspensions were incubated for 30 minutes at 37° C. Subsequently, 50 μL of a 20% of pooled human serum in complete media were added to experiment wells and control wells (i.e., no antibody) and the plate was incubated for 1 hours at 37° C. in a fully humidified atmosphere of 5% CO2. Subsequently, 6 uL of 2.5 μg/mL was added to each well and after 10 minutes the plate was analyzed using an Attune NxT Flow Cytometer. Target cell viability was accessed by determining the percentage of 7-AAD positive cells. CDC was calculated as follows: % CDC=% 7-AAD positive target cells in experiment well—% 7-AAD positive target cells in control wells.

Cc1c2oc3c(C)ccc(C(=O)N[C@@H]4C(=O)N[C@H](C(C)C)C(=O)N5CCC[C@H]5C(=O)N(C)CC(=O)N(C)[C@@H](C(C)C)C(=O)O[C@@H]4C)c3nc-2c(C(=O)N[C@@H]2C(=O)N[C@H](C(C)C)C(=O)N3CCC[C@H]3C(=O)N(C)CC(=O)N(C)[C@@H](C(C)C)C(=O)O[C@@H]2C)c(N)c1=O [ACT-D, actinomycin D] (I: T[dV]P[Sar][NMeV] / II: T[dV]P[Sar][NMeV]; ester I:1-I:C, II:1-II:C; linker I:N-II:N via Actinocin(9to1))
effect on Kif mediated CD20 upregulation (Raji cells [1]): inhibit Kif mediated CD20 upregulation

C[C@@H]1C[C@@H]([C@H](O)CC2CC(=O)NC(=O)C2)C(=O)[C@@H](C)C1 [CHX, cycloheximide]
effect on Kif mediated CD20 upregulation (Raji cells [1]): inhibit Kif mediated CD20 upregulation

OC[C@@H](O)[C@H]1NC[C@@H](O)[C@H]1O [DIM, 1,4-dideoxy-1,4-imino-D-mannitol]
cell surface expression of CD20 (Raji cells [1]; Raji cells): significantly increase CD20 expression

OC[C@H]1NC[C@@H](O)[C@@H](O)[C@@H]1O [DMJ, 1-deoxymannojirimycin hydrochlorie]
cell surface expression of CD20 (Raji cells [1]; Raji cells): significantly increase CD20 expression

O=C1N[C@@H]2[C@@H](O)[C@@H](O)[C@H](O)[C@@H](CO)N2C1=O [Kif, kifunensine]
cell surface expression of CD20 (Raji cells [1]; Raji cells): increases cell surface expression of CD20 in Raji cells in a concentration dependent manner | CD20 expression by western blotting (Raji cells [1]; Raji cells, whole cell lysate, 48 hours (FIG. 1B)): increase CD20 expression was confirmed by western blotting | side effects [2]: no side effects were observed | CD20 expression in tumors ([2]; Western blot, Raji and Raji 4RH): increases the expression of CD20 | histone acetylation (Raji cells [3]): did not significantly alter histone acetylation | CD20 expression in primary CLL samples [4]: increases CD20 expression in a dose-dependent and significant manner | obinutuzumab potency in combination with Kif (malignant B cell lines [5]; ADCC): potency of obinutuzumab was also increased | sensitization of rituximab resistant cell lines to rituximab (ADCC) (malignant B cell lines [5]; Raji 2R and Raji 4RH): sensitized to the action of rituximab | rituximab potency in ADCC in combination with Kif (malignant B cell lines [5]; all cell lines tested, Kif 25 μM 48 hours before rituximab mediated ADCC (FIG. 3A)): potency of rituximab was increased | CD20 expression in rituximab resistant cell lines [6]: significantly increased CD20 expression | CD20 upregulation in panel of cell lines [7]: upregulates CD20 | expression of MS4A1 (MS4A1): altered the expression of the MS4A1 | complement mediated killing without antibody (malignant B cell lines [8]; Kif treated cells, absence of antibody): more susceptible to complement mediated killing in the absence of antibody | susceptibility to CDC with rituximab and ofatumumab (malignant B cell lines [8]; cells treated with Kif prior to CDC (FIG. 3B)): rendered cells more susceptible | sensitization of rituximab resistant cells to CDC (malignant B cell lines [8]; rituximab resistant cells, data not shown): not sensitized to CDC

O[C@H]1[C@H]2[C@H](O)CCCN2C[C@H]1O [Swain, swainsonine]
cell surface expression of CD20 (Raji cells [1]; Raji cells): significantly increase CD20 expression
